According to US20240384268A1, “Oligonucleotides” (Hudson Institute of Medical Research, priority 2021, published 2024):
In the oligonucleotide strings, read from the 5' end, every base follows the letter of its sugar. An asterisk marks phosphorothioate; unmarked linkages are phosphodiester. Other units and linkages are bracketed, terminal groups are in braces. A string of capitals states the bases alone. d = 2'-deoxy (DNA); m = 2'-O-methyl

Assays:
TLR8 = target: T1, TLR8 (Homo sapiens, UniProt Q9NR97); assay: R848-driven IP-10 production in THP-1 cells (TLR8); assay type: cell-based; set-up: expressed in transfected cells; dose or concentration left out as unconfirmed; settings: R848 7 h; for effect of 3-mer 2′OMe oligos on R848-driven IP-10 in THP-1 (in words): 3-mer oligos overnight; for TLR8 potentiation in THP-1, short 2′OMe oligos (IP-10; in words): oligos overnight
T1 sequence (Q9NR97 27-1041): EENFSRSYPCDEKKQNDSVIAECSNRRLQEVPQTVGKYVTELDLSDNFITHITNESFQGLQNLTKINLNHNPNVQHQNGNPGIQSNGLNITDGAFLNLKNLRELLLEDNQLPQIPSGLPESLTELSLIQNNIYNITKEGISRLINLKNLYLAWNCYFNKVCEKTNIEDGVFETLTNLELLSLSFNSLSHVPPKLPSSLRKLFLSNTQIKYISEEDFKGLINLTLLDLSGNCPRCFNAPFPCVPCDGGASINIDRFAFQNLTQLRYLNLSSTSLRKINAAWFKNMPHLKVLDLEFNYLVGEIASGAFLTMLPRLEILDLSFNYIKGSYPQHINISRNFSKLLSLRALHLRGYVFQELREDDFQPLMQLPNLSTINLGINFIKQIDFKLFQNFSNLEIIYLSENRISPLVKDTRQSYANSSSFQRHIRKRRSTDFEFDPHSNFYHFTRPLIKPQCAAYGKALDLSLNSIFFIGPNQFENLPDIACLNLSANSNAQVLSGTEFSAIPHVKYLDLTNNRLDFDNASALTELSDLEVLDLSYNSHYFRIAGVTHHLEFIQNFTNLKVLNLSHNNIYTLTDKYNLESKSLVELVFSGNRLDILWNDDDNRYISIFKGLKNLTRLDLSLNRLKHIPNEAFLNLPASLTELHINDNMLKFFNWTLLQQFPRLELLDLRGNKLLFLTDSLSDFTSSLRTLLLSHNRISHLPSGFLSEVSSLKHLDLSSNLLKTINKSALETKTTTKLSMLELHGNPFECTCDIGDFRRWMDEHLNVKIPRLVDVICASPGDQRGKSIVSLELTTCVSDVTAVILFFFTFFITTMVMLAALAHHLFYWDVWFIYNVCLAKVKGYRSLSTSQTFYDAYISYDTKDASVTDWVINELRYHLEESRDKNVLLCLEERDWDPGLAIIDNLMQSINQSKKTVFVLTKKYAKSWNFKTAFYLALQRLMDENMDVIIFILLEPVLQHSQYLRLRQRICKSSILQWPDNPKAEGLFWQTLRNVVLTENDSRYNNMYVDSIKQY
Protocol: FIG. 34: THP-1 cells were pre-treated overnight with […] ASOs, prior to R848 stimulation for 7h. […] All ASO conditions are with R848 co-stimulation.
FIG. 35: THP-1 cells were pre-treated overnight with indicated concentrations of ASOs, prior to R848 stimulation for 7h. […] All ASO conditions are with R848 co-stimulation. SEM and two-way ANOVA with Tukey's multiple comparisons to 660-3b condition are shown.
FIG. 36: A, B, C) HEK-TLR8 cells expressing an NF-κB-luciferase reporter were pre-treated 40 min with […] oligos, prior to Motolimod stimulation (400 nM [B] or 600 nM [A and C] overnight). Data shown are averaged from 2 (B) independent or a single experiment (A and C), completed with 3 biological triplicate. The NF-κB-luciferase values are reported to the Motolimod condition. D) THP-1 cells were pre-treated overnight with […] 3-mer oligos, prior to R848 stimulation ([…]) for 7h. IP-10 levels were measured by ELISA. Data shown are averaged from a single experiment completed with 3 biological triplicate, reported to the R848 only condition. A-E) All oligo conditions are with Motolimod or R848 co-stimulation.
Human IP-10 and IFN-β levels were measured using supernatants from the different cultures and were quantified using IP-10 (BD Biosciences, #550926) or IFN-β (PBL assay science, #41415-1) ELISA kits respectively, according to the manufacturers' protocol. Tetramethylbenzidine substrate (Thermo Fisher Scientific) was used for quantification of the cytokines on a Fluostar OPTIMA (BMG LABTECH) plate-reader.

TLR7 = target: T2, TLR7 (Mus musculus, UniProt P58681); assay: Guanosine-induced TNFα in primary BMDMs; assay type: cell-based; set-up: endogenous in cells; host or cells: primary BMDMs from wild-type mice; settings: WT primary BMDMs; 200 nM ASO 30 min; 500 μM Guanosine overnight
T2 sequence (P58681 27-1050): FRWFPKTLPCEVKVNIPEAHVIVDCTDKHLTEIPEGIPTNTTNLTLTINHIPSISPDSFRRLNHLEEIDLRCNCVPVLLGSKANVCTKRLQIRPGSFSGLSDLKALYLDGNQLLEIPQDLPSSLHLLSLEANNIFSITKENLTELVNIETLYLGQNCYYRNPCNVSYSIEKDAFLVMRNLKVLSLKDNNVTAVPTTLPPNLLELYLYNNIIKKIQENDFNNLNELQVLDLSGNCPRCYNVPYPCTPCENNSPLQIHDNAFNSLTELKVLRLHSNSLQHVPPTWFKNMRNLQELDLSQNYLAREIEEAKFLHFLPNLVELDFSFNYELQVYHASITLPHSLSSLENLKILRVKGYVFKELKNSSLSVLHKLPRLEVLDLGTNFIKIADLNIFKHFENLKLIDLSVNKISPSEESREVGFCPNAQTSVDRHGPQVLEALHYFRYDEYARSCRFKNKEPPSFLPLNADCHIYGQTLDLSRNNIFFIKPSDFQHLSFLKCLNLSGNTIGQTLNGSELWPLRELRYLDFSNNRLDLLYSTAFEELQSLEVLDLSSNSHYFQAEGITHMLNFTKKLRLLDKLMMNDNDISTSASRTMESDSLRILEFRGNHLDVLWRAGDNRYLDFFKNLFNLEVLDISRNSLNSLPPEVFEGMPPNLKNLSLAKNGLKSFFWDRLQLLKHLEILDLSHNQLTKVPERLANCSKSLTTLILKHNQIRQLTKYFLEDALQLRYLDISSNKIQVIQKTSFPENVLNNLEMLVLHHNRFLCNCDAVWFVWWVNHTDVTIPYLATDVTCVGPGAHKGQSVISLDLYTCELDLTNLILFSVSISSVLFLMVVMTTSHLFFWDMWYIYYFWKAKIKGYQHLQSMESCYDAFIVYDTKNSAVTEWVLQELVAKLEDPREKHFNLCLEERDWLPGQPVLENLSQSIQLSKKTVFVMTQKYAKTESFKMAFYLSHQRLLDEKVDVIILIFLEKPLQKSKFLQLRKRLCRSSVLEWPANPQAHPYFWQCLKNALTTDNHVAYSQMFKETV

## mGmUmA (GUA; all 2'-O-methyl, backbone not given here; further chemistry not fully specified) [shortMut1-3b]
TLR8
  effect of 3-mer 2′OMe oligos on R848-driven IP-10 in THP-1 (in words): robustly inhibitory

## mG*mG*mU*A*T*C*C*C*C*C*C*C*C*C*C*C*C*C*C*C (GGUATCCCCCCCCCCCCCCC; antisense; sugars from the 5' end m3 d17, all phosphorothioate, methylation of C not given here) [[C2]Mut1-dC]
TLR7
  TNFα production induced by guanosine (in words): significantly inhibiting TNFα levels

## mGmUmC (mG*mU*mC) [GUC, 3-mer 2′OMe PS oligo]
TLR8
  effect of 3-mer 2′OMe oligos on R848-driven IP-10 in THP-1 (in words): robustly inhibitory

## mGmUmU (mG*mU*mU) [GUU, 3-mer 2′OMe PS oligo]
TLR8
  effect of 3-mer 2′OMe oligos on R848-driven IP-10 in THP-1 (in words): robustly inhibitory

## mGmUmG (mG*mU*mG) [GUG, 3-mer 2′OMe PS oligo]
TLR8
  effect of 3-mer 2′OMe oligos on R848-driven IP-10 in THP-1 (in words): robustly inhibitory

## mGmAmU (mG*mA*mU) [GAU, 3-mer 2′OMe PS oligo]
TLR8
  effect of 3-mer 2′OMe oligos on R848-driven IP-10 in THP-1 (in words): robustly the most potent

## mUmCmG (antisense mU*mC*mG) [660-3b]
TLR8
  TLR8 potentiation in THP-1, short 2′OMe oligos (IP-10; in words): significantly potentiated TLR8 sensing

## mC*mG*mU*T*T*C*C*C*C*C*C*C*C*C*C*C*C*C*C*C (CGUTTCCCCCCCCCCCCCCC; antisense; sugars from the 5' end m3 d17, all phosphorothioate, methylation of C not given here) [[C2]Mut1-v3-dC]
TLR7
  TNFα production induced by guanosine (in words): did not

## mCmUmU (antisense mC*mU*mU) [660-3]
TLR8
  TLR8 potentiation in THP-1, short 2′OMe oligos (IP-10; in words): did not work
TLR8; listed as CUU
  TLR8 potentiation in THP-1, short 2′OMe oligos (IP-10; in words): did not potentiate TLR8

## mG*mC*mG*mG*mU*A*T*C*C*A*T*G*T*C*C*mC*mA*mG*mG*mC (mG*mC*mG*mG*mU*dA*dT*dC*dC*dA*dT*dG*dT*dC*dC*mC*mA*mG*mG*mC; antisense) [C2-Mut1]
TLR7
  TNFα production induced by guanosine (in words): significantly inhibiting TNFα levels
